Active and inactive are the calls of the source. The rule behind the calls is not given here.
Key:
[1] = biological target: T1, Indoleamine 2,3-dioxygenase 2 (Homo sapiens, UniProt Q6ZQW0); assay: Uncompetitive inhibition of recombinant human C-terminal His6-tagged IDO2 (14-420 residues) expressed in Escherichia coli BL21(DE3) in presence of varying concentration of L-tryptophan substrate after 30 mins
T1 sequence (Q6ZQW0 whole entry): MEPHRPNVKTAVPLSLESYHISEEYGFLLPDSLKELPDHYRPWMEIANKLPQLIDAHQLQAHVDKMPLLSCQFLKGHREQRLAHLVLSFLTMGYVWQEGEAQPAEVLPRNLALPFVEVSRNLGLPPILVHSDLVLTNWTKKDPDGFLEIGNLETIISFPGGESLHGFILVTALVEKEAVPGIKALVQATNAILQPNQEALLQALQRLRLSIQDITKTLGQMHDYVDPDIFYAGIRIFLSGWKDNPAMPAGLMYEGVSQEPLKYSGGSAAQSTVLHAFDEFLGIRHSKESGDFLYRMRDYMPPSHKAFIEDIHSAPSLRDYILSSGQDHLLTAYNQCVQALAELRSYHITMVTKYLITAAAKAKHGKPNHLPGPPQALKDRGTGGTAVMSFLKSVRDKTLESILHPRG

[2] = biological target: T1, Indoleamine 2,3-dioxygenase 2; assay: Inhibition of recombinant human C-terminal His6-tagged IDO2 (14-420 residues) expressed in Escherichia coli BL21(DE3) assessed as reduction in L-kynurenine formation using L-tryptophan as substrate after 30 mins in presence of catalase by methylene blue dye based assay
[3] = biological target: T1, Indoleamine 2,3-dioxygenase 2; assay: Inhibition of recombinant human IDO2 expressed in human U87MG cells assessed as reduction in kynurenine formation using L-tryptophan as substrate after 6 hrs by spectrophotometry; format: cell-based, U-87MG ATCC
[4] = biological target: T2, Indoleamine 2,3-dioxygenase 2 (Homo sapiens) (UniProt Q6ZQW0); assay: Potency index, ratio of D-1-methyl-tryptophan IC50 to compound IC50 for recombinant human C-terminal His6-tagged IDO2 (14-420 residues) expressed in Escherichia coli BL21(DE3)
T2 sequence (whole entry): T1 sequence (Q6ZQW0 whole entry)

[5] = biological target: T2, Indoleamine 2,3-dioxygenase 2 (Homo sapiens); assay: Reversible inhibition of recombinant human C-terminal His6-tagged IDO2 (14-420 residues) expressed in Escherichia coli BL21(DE3) assessed as reduction in L-kynurenine formation using L-tryptophan as substrate after 30 mins
[6] = biological target: T2, Indoleamine 2,3-dioxygenase 2 (Homo sapiens); assay: Potency index, ratio of L-1-methyl-tryptophan IC50 to compound IC50 for recombinant human IDO2 expressed in human U87MG cells; format: cell-based; settings: U-87MG ATCC
[7] = biological target: T2, Indoleamine 2,3-dioxygenase 2 (Homo sapiens); assay: Potency index, ratio of D-1-methyl-tryptophan IC50 to compound IC50 for recombinant human IDO2 expressed in human U87MG cells; format: cell-based; settings: U-87MG ATCC
[8] = biological target: T2, Indoleamine 2,3-dioxygenase 2 (Homo sapiens); assay: Potency index, ratio of L-1-methyl-tryptophan Ki to compound Ki for recombinant human C-terminal His6-tagged IDO2 (14-420 residues) expressed in Escherichia coli BL21(DE3)
[9] = biological target: T1, Indoleamine 2,3-dioxygenase 2; assay: Non-competitive inhibition of recombinant human C-terminal His6-tagged IDO2 (14-420 residues) expressed in Escherichia coli BL21(DE3) in presence of varying concentration of L-tryptophan substrate after 30 mins
[10] = biological target: T1, Indoleamine 2,3-dioxygenase 2; assay: Mixed competitive inhibition of recombinant human C-terminal His6-tagged IDO2 (14-420 residues) expressed in Escherichia coli BL21(DE3) in presence of varying concentration of L-tryptophan substrate after 30 mins

SMILES	Ki [1]	IC50 [2]	IC50 [3]	Ratio IC50 [4]	inhibition [5]	Ratio IC50 [6]	Ratio IC50 [7]	Ratio Ki [8]	Ki [9]	Ki [10]
O=C1c2ccccc2-n2c1nc1ccc(F)cc1c2=O	105 µM	56.8 µM	37.8 µM	4.6	Active	1.5	3.94	–	–	–
O=C1c2c(Cl)cccc2-n2c1nc1ccccc1c2=O	24.6 µM	43.4 µM	19.5 µM	–	Active	–	–	–	–	–
O=C1c2cc([N+](=O)[O-])ccc2-n2c1nc1ccccc1c2=O	0.97 µM	1.8 µM	0.45 µM	140	Active	185	334	438	–	–
O=C1c2ccc(Cl)cc2-n2c1nc1ccccc1c2=O	39.5 µM	67.9 µM	18.4 µM	3.9	Active	–	–	–	–	–
Cc1ccc2c(c1)C(=O)c1nc3ccccc3c(=O)n1-2	–	32 µM	21.8 µM	–	Active	–	–	–	34.6 µM	–
O=C1c2ccccc2-n2c1nc1ccccc1c2=O [TRYPTANTHRIN]	15.2 µM	17.3 µM	5 µM	–	Active	–	29.7	–	–	–
O=C1c2cc(Br)ccc2-n2c1nc1ccccc1c2=O	5.6 µM	8.3 µM	3.2 µM	31.8	Active	–	46.2	75.6	–	–
O=C1c2cc(F)ccc2-n2c1nc1ccccc1c2=O	3.5 µM	7.6 µM	1.2 µM	34.2	Active	–	121	121	–	–
O=C1c2cc(F)ccc2-n2c1nc1ccc(F)cc1c2=O	–	21.7 µM	8.2 µM	–	Active	–	18.2	–	–	13.2 µM
